Results taken from US20220025053A1, “Methods of Inhibiting Metastasis in Cancer” (Wisconsin Alumni Research Foundation, priority 2018, published 2022).
Entries after “also recorded” stand apart in the source; their conditions may differ.

Experiments:
MEK = assay: SELP expression in LP-9 by qRT-PCR, MEK inhibition; format: cell-based, human; conditions: both vehicle and 100 ng/mL MIP-1β treated LP-9, 10 μM PD0325901, 24 hours
From the text: (§1) RNA extraction and qRT-PCR: RNA was collected and isolated using the Micro-RNeasy® Extraction kit (Qiagen; Valencia, Calif.), and cDNA was synthesized using the Qiagen® First Strand Kit according to manufacturer's instructions. cDNA was mixed with Qiagen® Mastermix and assayed using the Extracellular Matrix and Adhesion Molecules RT2 Profiler PCR Array (Qiagen) in a CFX real time PCR machine (Bio-Rad; Hercules, Calif.) for a total of 40 cycles, using Qiagen's Data Analysis Center for analysis. Data is expressed as fold change, with ±2-fold set as the threshold for significance. qRT-PCR was performed using human primers for SELP, CCR1, and CCR5, and GAPDH (all Qiagen), and mouse primers for Selp (Qiagen) and Aes (IDT; Coralville, Iowa), with SsoAdvanced™ Universal SYBR® Green Supermix (Bio-Rad). Three samples were run in duplicate from each condition.
(§2) Interventions in co-culture model: To determine if P-selectin played a role in adhesion, LP-9 in co-culture devices were treated with 10 μg/mL of anti-P-selectin blocking antibody or monoclonal mouse IgG1 isotype (BioLegend; San Diego, Calif.), or 10 μM of the small molecular inhibitor KF38789 (Tocris; Minneapolis, Minn.) or DMSO (0.0005% v/v) 1 hour prior to the addition of ovarian cancer cells. […]

HGSOC = conditions: mouse models of HGSOC; cited from earlier work
ovarian cancer xenograft = conditions: clodronate to reduce macrophage levels; cited from earlier work
CCR5 = CCR5 (Homo sapiens, UniProt P51681); assay: SELP expression in LP-9 by qRT-PCR, CCR5 inhibition; format: cell-based; conditions: 100 ng/mL MIP-1β + 10 μg/mL maraviroc, 24 hours
CCR5, sequence (P51681 whole entry): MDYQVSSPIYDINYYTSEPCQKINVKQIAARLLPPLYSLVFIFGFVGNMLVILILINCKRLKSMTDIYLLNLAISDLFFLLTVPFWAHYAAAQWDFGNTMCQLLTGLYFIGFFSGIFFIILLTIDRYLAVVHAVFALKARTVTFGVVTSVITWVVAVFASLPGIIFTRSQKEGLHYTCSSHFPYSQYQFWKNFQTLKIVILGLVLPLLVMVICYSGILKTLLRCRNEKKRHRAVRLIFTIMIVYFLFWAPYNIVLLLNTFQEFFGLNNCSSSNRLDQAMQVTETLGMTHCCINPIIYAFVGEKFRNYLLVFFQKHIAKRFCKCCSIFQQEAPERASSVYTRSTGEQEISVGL
From the text: as §1, §2

P-selectin [1] = target: T1, P-selectin (Homo sapiens, UniProt P16109); assay: HGSOC adhesion to LP-9 mesothelial cells in co-culture device, P-selectin inhibition; format: cell-based; parameters: endogenous in cells; host or cells: LP-9 mesothelial cells; conditions: LP-9 + 100 ng/mL MIP-1β; 10 μM KF38789 1 hour before tumor cells; 3 h adhesion
T1 sequence (P16109 42-830): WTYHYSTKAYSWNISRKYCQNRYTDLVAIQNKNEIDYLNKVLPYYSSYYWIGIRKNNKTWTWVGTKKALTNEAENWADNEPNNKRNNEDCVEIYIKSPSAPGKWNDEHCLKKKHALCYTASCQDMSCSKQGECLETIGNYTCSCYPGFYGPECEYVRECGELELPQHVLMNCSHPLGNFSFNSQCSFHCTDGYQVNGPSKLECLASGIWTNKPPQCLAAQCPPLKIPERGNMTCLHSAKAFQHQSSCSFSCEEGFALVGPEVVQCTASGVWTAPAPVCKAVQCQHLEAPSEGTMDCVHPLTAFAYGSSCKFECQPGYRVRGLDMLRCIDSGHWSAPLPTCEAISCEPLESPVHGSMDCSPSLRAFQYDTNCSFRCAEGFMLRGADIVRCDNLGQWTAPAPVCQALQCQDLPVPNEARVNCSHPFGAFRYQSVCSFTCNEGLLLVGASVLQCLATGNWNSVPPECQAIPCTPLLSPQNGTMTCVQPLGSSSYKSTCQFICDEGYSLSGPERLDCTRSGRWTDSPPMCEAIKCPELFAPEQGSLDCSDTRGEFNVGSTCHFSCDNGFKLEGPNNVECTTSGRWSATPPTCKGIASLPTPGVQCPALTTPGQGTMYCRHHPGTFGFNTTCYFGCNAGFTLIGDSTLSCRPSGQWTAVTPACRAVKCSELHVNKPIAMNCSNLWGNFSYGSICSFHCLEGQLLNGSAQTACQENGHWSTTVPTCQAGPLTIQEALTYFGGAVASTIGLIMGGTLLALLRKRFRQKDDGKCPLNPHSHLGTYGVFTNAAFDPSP
From the text: (§3) In vitro model of adhesion in transcoelomic metastasis: A co-culture device was modified to construct the in vitro model of metastatic adhesion (FIG. 2). The device includes a PDMS ring that is placed in a well of a 24 well tissue culture plate and a 9×9 mm coverslip placed on top. One or more cell types can be grown within the ring, while another population can be grown on the coverslip. Inverting the coverslip on top of the ring initiates co-culture between the populations. The tissue culture plastic within the PDMS ring was coated with 1 μg of PureCol® Collagen I (Advanced Biomatrix; San Diego, Calif.) for 2 hours at room temperature. LP-9 or LP-3 were seeded into the PDMS rings to confluency (93,500 cells/cm^2 in 40 μL). Twenty-four hours after seeding, cells were washed with SFM, AAM or control coverslips were placed on top of the PDMS ring, and 40 μL of fresh SFM was added. HGSOC cells were stained with 5 μM CellTracker™ Green CMFDA Dye, dissociated using TrypLE™ Select Enzyme, and seeded into devices at 10,000 cells/10 μL after 24 hours of mesothelial cells and AAMs co-culture. […] Percent adhesion was quantified by converting cells/image to total cells/area of the co-culture device and dividing by the number of HGSOC cells added to the device.

P-selectin [2] = target: T1, P-selectin; assay: Colorectal cancer cell adhesion to MIP-1β-treated LP-9; format: cell-based; parameters: endogenous in cells; host or cells: LP-9 mesothelial cells; conditions: LS411N, SW48; 100 ng/mL MIP-1β; KF38789 10 μM
Description: The experimental methods are reflective of those previously used to inhibit P-selectin, while used in an adhesion experiment with the colorectal cell lines LS411N and SW48.
The tissue culture plastic within the PDMS ring was coated with 1 μg of PureCol® Collagen I for 2 hours at room temperature. LP-9 were seeded into the PDMS rings to confluency (93,500 cells/cm^2 in 40 μL). Twenty-four hours after seeding, cells were washed with SFM, and 40 μL of fresh SFM containing either vehicle (0.1% BSA) or 100 ng/mL MIP-1β was added for 24 hours. To determine if P-selectin played a role in adhesion, LP-9 were treated with 10 μM of the small molecule P-selectin inhibitor KF38789 or DMSO (0.0005% v/v) 1 hour prior to the addition of colorectal cancer cells. The colorectal cancer cells (LS411N, SW48) were stained with 5 μM CellTracker™ Green CMFDA Dye, dissociated using TrypLE Select Enzyme, and seeded into devices at 10,000 cells/10 μL after 24 hours of mesothelial cell treatment with MIP-1β. Colorectal cancer cells were allowed to adhere for three hours, then coverslips were removed, and devices were washed twice with 2 mL PBS to remove non-adherent cells. […] Percent adhesion was quantified by converting cells/image to total cells/area of the co-culture device and dividing by the number of HGSOC cells added to the device.

P-selectin [3] = target: T1, P-selectin; conditions: clinical trial; cited from earlier work
[4] = administered systemically; cited from earlier work
P-selectin [5] = target: T1, P-selectin; conditions: cited from earlier work
LP-9 mesothelial cells = assay: HGSOC adhesion to LP-9 treated with MIP-1β; format: cell-based, human; conditions: 100 ng/mL MIP-1β 24 hours, all HGSOC lines
From the text: as §3

## O=C(NOC[C@H](O)CO)c1ccc(F)c(F)c1Nc1ccc(I)cc1F [PD0325901]
MEK
  SELP expression in LP-9: significantly decreased SELP expression

## IL-1ra: AAM-secreted ligand IL-1ra
HGSOC
  Extent of metastasis: decrease the extent of metastasis

## O=P(O)(O)C(Cl)(Cl)P(=O)(O)O [clodronate]
Ovarian cancer xenograft
  Metastasis: decreased metastasis

## Maraviroc
CCR5
  MIP-1β-stimulated SELP expression in LP-9: effective in inhibiting MIP-1β-stimulated expression of SELF
CCR5; listed as maraviroc
  MIP-1β-stimulated SELP expression in LP-9: negated SELP upregulation; also recorded: inhibited the upregulation of SELP

## COc1ccc(C2CC(c3c(O)cc(C)oc3=O)=NCCS2)c(OC)c1 (stereo not drawn) [KF38789, reference compound]
P-selectin [1]
  HGSOC adhesion to LP-9 increased by MIP-1β: abrogated the increased adhesion
P-selectin [2]
  Colorectal cancer cell adhesion to LP-9 increased by MIP-1β: abrogates the increased adhesion

## inclacumab
P-selectin [3]
  Efficacy for saphenous vein graft failure following coronary artery bypass surgery: surgery (94-96). While inclacumab had low efficacy for this
[4]
  Tolerability in patients: well tolerated

B1: crizanlizumab (antibody, chains of the INN, looked up, V domains shown)
VH: QVQLVQSGAEVKKPGASVKVSCKVSGYTFTSYDINWVRQAPGKGLEWMGWIYPGDGSIKYNEKFKGRVTMTVDKSTDTAYMELSSLRSEDTAVYYCARRGEYGNYEGAMDYWGQGTLVTVSS
VL: DIQMTQSPSSLSASVGDRVTITCKASQSVDYDGHSYMNWYQQKPGKAPKLLIYAASNLESGVPSRFSGSGSGTDFTLTISSLQPEDFATYYCQQSDENPLTFGGGTKVEIK
notes: monoclonal antibody against P-selectin
P-selectin [5]
  Effect on P-selectin-ligand binding: not only block ligand binding but also disrupt existing P-selectin-ligand interactions
[4]
  Tolerability in patients: well tolerated

B2: MIP-1β: recombinant chemokine MIP-1β (Peprotech; recombinant mouse MIP-1β in vivo) (protein, UniProt P13236 24-92, looked up)
C-C motif chemokine 4: APMGSDPPTACCFSYTARKLPRNFVVDYYETSSLCSQPAVVFQTKRSKQVCADPSESWVQEYVYDLELN
LP-9 mesothelial cells
  HGSOC adhesion to LP-9 treated with MIP-1β: significantly increased adhesion
